Results published in PubChem BioAssay (NCI).
“And” between values parts separate entries of the source, which are not always exact repeats. Equal entries are not always repeated.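 The compound was tested at five concentrations on cells cultured in 96-well plates, with a 48-hour exposure period. Abbreviation: GI50, concentration required for 50% inhibition of growth. TGI is the concentration that stops growth completely.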

Columns and labels:
Test in all cases: DTP human tumour cell line panel, 48 h
NCI-H23 lung = tested on: NCI-H23 lung
NCI-H460 lung = tested on: NCI-H460 lung
NCI-H522 lung = tested on: NCI-H522 lung
NCI/ADR-RES ovarian = tested on: NCI/ADR-RES ovarian
OVCAR-3 ovarian = tested on: OVCAR-3 ovarian
OVCAR-4 ovarian = tested on: OVCAR-4 ovarian
OVCAR-5 ovarian = tested on: OVCAR-5 ovarian
OVCAR-8 ovarian = tested on: OVCAR-8 ovarian
PC-3 prostate = tested on: PC-3 prostate
RPMI-8226 leukemia = tested on: RPMI-8226 leukemia
RXF 393 renal = tested on: RXF 393 renal
SF-268 CNS = tested on: SF-268 CNS
SF-295 CNS = tested on: SF-295 CNS
SF-539 CNS = tested on: SF-539 CNS
SK-MEL-2 melanoma = tested on: SK-MEL-2 melanoma
SK-MEL-28 melanoma = tested on: SK-MEL-28 melanoma
SK-MEL-5 melanoma = tested on: SK-MEL-5 melanoma
SK-OV-3 ovarian = tested on: SK-OV-3 ovarian
SN12C renal = tested on: SN12C renal
SNB-19 CNS = tested on: SNB-19 CNS
SNB-75 CNS = tested on: SNB-75 CNS
SR leukemia = tested on: SR leukemia
SW-620 colon = tested on: SW-620 colon
T-47D breast = tested on: T-47D breast
TK-10 renal = tested on: TK-10 renal
U251 CNS = tested on: U251 CNS
UACC-257 melanoma = tested on: UACC-257 melanoma
UACC-62 melanoma = tested on: UACC-62 melanoma
UO-31 renal = tested on: UO-31 renal

With CN1C[C@@H]2Cn3c(c(C4=C(c5cn(C)c6ccccc56)C(=O)NC4=O)c4ccccc43)C[C@H]2C1 the TGI (NCI-H23 lung) was 10.7 µM and 15.3 µM, the GI50 (NCI-H460 lung) was 4.61 µM and 4.35 µM and the TGI (NCI-H460 lung) was 8.9 µM. For the same compound, the GI50 (NCI-H522 lung) was 4.16 µM and 3.63 µM, the TGI (NCI-H522 lung) was 8.15 µM and 7.81 µM and the GI50 (NCI/ADR-RES ovarian) was 6.46 µM and 8.53 µM. The TGI (NCI/ADR-RES ovarian) was 16.8 µM and 25 µM, the GI50 (OVCAR-3 ovarian) was 4.42 µM and 4.64 µM and the TGI (OVCAR-3 ovarian) was 9.42 µM and 10.9 µM. For the same compound, the GI50 (OVCAR-4 ovarian) was 3.36 µM and 3.48 µM, the TGI (OVCAR-4 ovarian) was 9.12 µM and 8.91 µM and the GI50 (OVCAR-5 ovarian) was 6.86 µM and 5.42 µM. For the same compound, the TGI (OVCAR-5 ovarian) was 23.1 µM and 17.2 µM, the GI50 (OVCAR-8 ovarian) was 4.74 µM and 4.35 µM and the TGI (OVCAR-8 ovarian) was 11.4 µM and 11.1 µM. The GI50 (PC-3 prostate) was 3.91 µM and 2.81 µM, the TGI (PC-3 prostate) was 11 µM and 7.08 µM and the GI50 (RPMI-8226 leukemia) was 5.56 µM and 4.7 µM. For the same compound, the TGI (RPMI-8226 leukemia) was 11.9 µM and 10.3 µM, the GI50 (RXF 393 renal) was 3.53 µM and 3.17 µM and the TGI (RXF 393 renal) was 7.19 µM and 6.68 µM. For the same compound, the GI50 (SF-268 CNS) was 4.8 µM and 4.93 µM, the TGI (SF-268 CNS) was 9.46 µM and 9.97 µM and the GI50 (SF-295 CNS) was 3.42 µM and 3.76 µM. For the same compound, the TGI (SF-295 CNS) was 7.15 µM and 8.89 µM, the GI50 (SF-539 CNS) was 3.97 µM and 3.57 µM and the TGI (SF-539 CNS) was 7.83 µM and 7.12 µM. For the same compound, the GI50 (SK-MEL-2 melanoma) was 4.52 µM and 3.91 µM, the TGI (SK-MEL-2 melanoma) was 8.92 µM and 7.75 µM and the GI50 (SK-MEL-28 melanoma) was 4.34 µM and 4.35 µM. The TGI (SK-MEL-28 melanoma) was 8.62 µM and 8.47 µM, the GI50 (SK-MEL-5 melanoma) was 4.17 µM and 3.68 µM and the TGI (SK-MEL-5 melanoma) was 8.01 µM and 7.28 µM. The GI50 (SK-OV-3 ovarian) was 4.56 µM and 4.06 µM, the TGI (SK-OV-3 ovarian) was 11.8 µM and 11.9 µM and the GI50 (SN12C renal) was 3.45 µM and 3.3 µM. For the same compound, the TGI (SN12C renal) was 8.8 µM and 8.65 µM, the GI50 (SNB-19 CNS) was 6.44 µM and 5.87 µM and the TGI (SNB-19 CNS) was 18.4 µM and 16.4 µM. The GI50 (SNB-75 CNS) was 0.441 µM and 0.259 µM, the TGI (SNB-75 CNS) was 3.79 µM and 3.6 µM and the GI50 (SR leukemia) was 4.89 µM and 1.77 µM. For the same compound, the TGI (SR leukemia) was 14.4 µM and 7.38 µM, the GI50 (SW-620 colon) was 4.34 µM and 3.22 µM and the TGI (SW-620 colon) was 9.21 µM and 8.94 µM. The GI50 (T-47D breast) was 4.26 µM and 5.32 µM, the TGI (T-47D breast) was 9.46 µM and 11.5 µM and the GI50 (TK-10 renal) was 3.5 µM and 3.74 µM. For the same compound, the TGI (TK-10 renal) was 7.6 µM and 8.41 µM, the GI50 (U251 CNS) was 3.59 µM and 2.83 µM and the TGI (U251 CNS) was 7.27 µM and 6.37 µM. For the same compound, the GI50 (UACC-257 melanoma) was 4.03 µM and 3.93 µM, the TGI (UACC-257 melanoma) was 8.01 µM and 7.6 µM and the GI50 (UACC-62 melanoma) was 3.89 µM and 3.61 µM. For the same compound, the TGI (UACC-62 melanoma) was 7.64 µM and 7.19 µM, the GI50 (UO-31 renal) was 2.01 µM and 2.98 µM and the TGI (UO-31 renal) was 5.38 µM and 6.66 µM.
